Literature values as cited in US11504319B2, “Process of coloring keratinous material comprising the use of an organosilicon compound, an effect pigment, a further coloring compound and a film-forming polymer III” (Henkel AG & Co. KGaA, priority 2019, dated 2022).

Settings: 25° C.

SMILES	solubility in water	solubility in water (in words)
O=S(=O)([O-])c1ccc(N=Nc2c(O)ccc3ccccc23)cc1.[Na+] [Acid Orange 7, sodium salt of 4-[(2-hydroxy-1-naphthyl)azo]benzene sulphonate]	more than 7 g/L	
O=C([O-])c1c(Cl)c(Cl)c(Cl)c(Cl)c1-c1c2c(Br)cc(=O)c(Br)c-2oc2c(Br)c(O)cc(Br)c12.O=C([O-])c1c(Cl)c(Cl)c(Cl)c(Cl)c1-c1c2c(Br)cc(=O)c(Br)c-2oc2c(Br)c(O)cc(Br)c12.[Na+].[Na+] [Acid Red 92, disodium salt of 3,4,5,6-tetrachloro-2-(1,4,5,8-tetrabromo-6-hydroxy-3-oxoxanthen-9-yl)benzoic acid]	greater than 10 g/L	
Nc1cc(S(=O)(=O)[O-])cc2cc(S(=O)(=O)[O-])c(N=Nc3ccccc3)c(O)c12.[Na+].[Na+] [Acid Red 33, disodium salt of 5-amino-4-hydroxy-3-(phenylazo)-naphthalene-2,7-disulphonate]	2500 µg/mL	
O=C([O-])C1=NN(c2ccc(S(=O)(=O)[O-])cc2)C(=O)C1N=Nc1ccc(S(=O)(=O)[O-])cc1.[Na+].[Na+].[Na+] (stereo not shown) [Acid Yellow 23, trisodium salt of 4,5-dihydro-5-oxo-1-(4-sulfophenyl)-4-((4-sulfophenyl)azo)-1H-pyrazole-3-carboxylic acid]		highly soluble
